Test results from patent publication US7253158B2, “Sulfonamides” (Hoffmann-La Roche Inc., priority 2004, dated 2007).
pIC50: −log10 of the molar value.

Biological target: T1, γ-secretase (Homo sapiens, UniProt P49768)
T1 construct: uses a HEK293 membrane fraction as a source of γ-secretase; endogenous in cells; host or cells: HEK293 (microsomal membrane fraction, solubilised in 0.25% CHAPSO)
Assay: in vitro γ-secretase assay (HEK293 membrane fraction, recombinant APP substrate, Abeta ELISA)
Assay type: biochemical
Settings: γ-secretase inhibition
Source text: Description of γ-Secretase Assay
The activity of test compounds can be evaluated in assays which measure the proteolytic cleavage of suitable substrates by γ-secretase activity. These can be cellular assays where e.g., a substrate of the γ-secretase is fused in its cytoplasmic domain to a transcription factor. Cells are transfected with this fusion gene and a reporter gene, e.g., firefly luciferase, which expression is enhanced by the transcription factor. Cleavage of the fused substrate by γ-secretase will lead to expression of the reporter gene which can be monitored in appropriate assays. The γ-secretase activity can also be determined in cell-free in vitro asays where e.g., a cell lysate containing the γ-secretase complex is incubated with a suitable APP-derived substrate which is cleaved to the Abeta peptides. The amount of produced peptides can be determined with specific ELISA assays. Cell lines of neuronal origin secrete Abeta peptides which can be measured with the specific ELISA assay. Treatment with compounds which inhibit γ-secretase leads to a reduction of secreted Abeta thus providing a measure of inhibition.
The in vitro assay of γ-secretase activity uses a HEK293 membrane fraction as a source of γ-secretase and a recombinant APP substrate. Latter consist of the C-terminal 100 amino acids of human APP fused to a 6× Histidin tail for purification which is expressed in E. coli in a regulatable expression vector, e.g. pEt15. This recombinant protein corresponds to the truncated APP fragment which results after […] of the extracellular domain and which constitutes the γ-secretase substrate. […] Hek293 cells are mechanically disrupted and the microsomal fraction is isolated by differential centrifugation.

| Compound | pIC50 (table head prints none) | pIC50 |
| --- | --- | --- |
| COC(=O)CNC(=O)c1ccc(CN(C2CC(C)(C)CCNC2=O)S(=O)(=O)c2ccc(Cl)cc2)cc1 (racemic) [Example 148, rac-(4-{[(4-Chloro-benzenesulfonyl)-(5,5-dimethyl-2-oxo-azepan-3-yl)-amino]-methyl}-benzoylamino)-acetic acid methyl ester] | 7.70 |  |
| CC1(C)CCNC(=O)C(N(Cc2ccc(C(=O)NCCN3CCOCC3)cc2)S(=O)(=O)c2ccc(Cl)cc2)C1 (racemic) [Example 149, rac-4-{[(4-Chloro-benzenesulfonyl)-(5,5-dimethyl-2-oxo-azepan-3-yl)-amino]-methyl}-N-(2-morpholin-4-yl-ethyl)-benzamide] | 6.82 |  |
| CC1(C)CCNC(=O)C(N(Cc2ccc(-c3nn[nH]n3)cc2)S(=O)(=O)c2ccc(Cl)cc2)C1 (racemic) [Example 150, rac-4-Chloro-N-(5,5-dimethyl-2-oxo-azepan-3-yl)-N-[4-(2H-tetrazol-5-yl)-benzyl]-benzenesulfonamide] | 7.00 |  |
| CC(=O)Nc1ccc(CN(C2CC(C)(C)CCNC2=O)S(=O)(=O)c2ccc(Cl)cc2)cc1 (racemic) [Example 152, rac-N-(4-{[(4-Chloro-benzenesulfonyl)-(5,5-dimethyl-2-oxo-azepan-3-yl)-amino]-methyl}-phenyl)-acetamide] | 7.70 |  |
| CCOC(=O)CC(=O)Nc1ccc(CN(C2CCCCNC2=O)S(=O)(=O)c2ccc(Cl)cc2)cc1 (racemic) [Example 165, Rac-N-(4-{[(4-Chloro-benzenesulfonyl)-(2-oxo-azepan-3-yl)-amino]-methyl}-phenyl)-malonamic acid ethyl ester] | 6.57 |  |
| COC(=O)c1ccc(C(C)N([C@@H]2CCCCNC2=O)S(=O)(=O)c2ccc(Cl)cc2)cc1 (stereo partly drawn) [Example 41, 4-{1-[(4-Chloro-benzenesulfonyl)-((R)-2-oxo-azepan-3-yl)-amino]-ethyl}-benzoic acid methyl ester] | 6.70 |  |
| O=C(NC1CC1)c1ccc(CN([C@@H]2CCCCNC2=O)S(=O)(=O)c2ccc(C(F)(F)F)cc2)cc1 [Example 106, N-Cyclopropyl-4-{[((R)-2-oxo-azepan-3-yl)-(4-trifluoromethyl-benzenesulfonyl)-amino]-methyl}-benzamide] | 6.59 |  |
| O=C(NC1CC1)c1ccc(CN([C@@H]2CCCCNC2=O)S(=O)(=O)c2ccc(Br)cc2)cc1 [Example 107, N-Cyclopropyl-4-{[((R)-2-oxo-azepan-3-yl)-(4-bromo-benzenesulfonyl)-amino]-methyl}-benzamide] | 6.54 |  |
| CC1(C)CCNC(=O)C(N(Cc2ccc(C(=O)NC3CC3)cc2)S(=O)(=O)c2ccc(Cl)cc2)C1 (stereo not drawn) [Example 109, 4-{[(4-Chloro-benzenesulfonyl)-(5,5-dimethyl-2-oxo-azepan-3-yl)-amino]-methyl}-N-cyclopropyl-benzamide] | 6.55 |  |
| O=C(NC1CC1)c1ccc(CN(C2CC(C(F)(F)F)CCNC2=O)S(=O)(=O)c2ccc(Cl)cc2)cc1 (stereo not drawn) [Example 115, 4-{[(4-Chloro-benzenesulfonyl)-(2-oxo-5-trifluoromethyl-azepan-3-yl)-amino]-methyl}-N-cyclopropyl-benzamide] | 7.52 |  |
| CC1(C)CCNC(=O)C(N(Cc2ccc(C(=O)O)cc2)S(=O)(=O)c2ccc(Cl)cc2)C1 (stereo not drawn) [Example 139, 4-{[(4-Chloro-benzenesulfonyl)-(5,5-dimethyl-2-oxo-azepan-3-yl)-amino]-methyl}-benzoic acid] | 7.15 |  |
| COc1ccc(CN([C@@H]2CCCCNC2=O)S(=O)(=O)c2ccc(C(F)(F)F)cc2)c(F)c1F [Example 166, N-(2,3-Difluoro-4-methoxy-benzyl)-N-((R)-2-oxo-azepan-3-yl)-4-trifluoromethyl-benzenesulfonamide] | 6.64 |  |
| CC1(C)CCNC(=O)[C@H](N(Cc2ccc(C(=O)NC3CC3)cc2)S(=O)(=O)c2ccc(Cl)cc2)C1 [Example 183, 4-{[(4-Chloro-benzenesulfonyl)-((R)-5,5-dimethyl-2-oxo-azepan-3-yl)-amino]-methyl}-N-cyclopropyl-benzamide] | 8.00 |  |
| COC(=O)CCc1ccc(CN([C@@H]2CC(C)(C)CCNC2=O)S(=O)(=O)c2ccc(Cl)cc2)cc1 [Example 186, 3-(4-{[(4-Chloro-benzenesulfonyl)-((R)-5,5-dimethyl-2-oxo-azepan-3-yl)-amino]-methyl}-phenyl)-propionic acid methyl ester] | 6.89 |  |
| CC1(C)CCNC(=O)[C@H](N(Cc2ccc(CCC(=O)O)cc2)S(=O)(=O)c2ccc(Cl)cc2)C1 [Example 187, 3-(4-{[(4-Chloro-benzenesulfonyl)-((R)-5,5-dimethyl-2-oxo-azepan-3-yl)-amino]-methyl}-phenyl)-propionic acid] | 8.00 |  |

Now from value to molecule:

| pIC50 (table head prints none) | pIC50 | Compound |
| --- | --- | --- |
| 6.64 |  | O=C1NCCCCC1N(Cc1ccc(C(F)F)cc1)S(=O)(=O)c1ccc(Cl)cc1 (racemic) [Example 172, Rac-4-Chloro-N-(4-difluoromethyl-benzyl)-N-(2-oxo-azepan-3-yl)-benzenesulfonamide] |
|  | 6.72 | COC(=O)c1ccc(CN(C2CCCCNC2=O)S(=O)(=O)c2ccc(Cl)cc2)c(F)c1 (racemic) [Example 203, rac-4-{[(4-Chloro-benzenesulfonyl)-(2-oxo-azepan-3-yl)-amino]-methyl}-3-fluoro-benzoic acid methyl ester] |
| 6.82 |  | NC(=O)c1ccc(CN([C@@H]2CCCCNC2=O)S(=O)(=O)c2ccc(Cl)cc2)cc1 [Example 2, 4-{[(4-Chloro-benzenesulfonyl)-((R)-2-oxo-azepan-3-yl)-amino]-methyl}-benzamide] |
| 6.59 |  | CC(C)C1CCNC(=O)C(N(Cc2ccc(C(N)=O)cc2)S(=O)(=O)c2ccc(Cl)cc2)C1 (stereo not drawn) [Example 4, 4-{[(4-Chloro-benzenesulfonyl)-(5-isopropyl-2-oxo-azepan-3-yl)-amino]-methyl}-benzamide] |
| 6.85 |  | COC(=O)c1ccc(CN([C@@H]2CCCCNC2=O)S(=O)(=O)c2ccc(Cl)cc2)c(F)c1 [Example 34, 4-{[(4-Chloro-benzenesulfonyl)-((R)-2-oxo-azepan-3-yl)-amino]-methyl}-3-fluoro-benzoic acid methyl ester] |
| 7.05 |  | CCOC(=O)c1ccc(CN([C@@H]2CCCCNC2=O)S(=O)(=O)c2ccc(Cl)cc2)cc1 [Example 35, 4-{[(4-Chloro-benzenesulfonyl)-((R)-2-oxo-azepan-3-yl)-amino]-methyl}-benzoic acid ethyl ester] |
| 7.10 |  | O=C1NCCCC[C@H]1N(Cc1ccc(-c2ncn[nH]2)cc1F)S(=O)(=O)c1ccc(Cl)cc1 [Example 56, 4-Chloro-N-[2-fluoro-4-(2H-[1,2,4]triazol-3-yl)-benzyl]-N-((R)-2-oxo-azepan-3-yl)-benzenesulfonamide] |
| 6.92 |  | COc1ccc(CN([C@@H]2CCCCNC2=O)S(=O)(=O)c2ccc(Cl)cc2)c(F)c1 [Example 68, 4-Chloro-N-(2-fluoro-4-methoxy-benzyl)-N-((R)-2-oxo-azepan-3-yl)-benzenesulfonamide] |
| 8.10 |  | COc1ccc(CN(C2CC(C(C)C)CCNC2=O)S(=O)(=O)c2ccc(Cl)cc2)cc1 (stereo not drawn) [Example 111, 4-Chloro-N-(5-isopropyl-2-oxo-azepan-3-yl)-N-(4-methoxy-benzyl)-benzenesulfonamide] |
| 6.85 |  | COc1ccc(CN(C2CC(C(C)C)CCNC2=O)S(=O)(=O)c2ccc(Cl)cc2)c(F)c1 (stereo not drawn) [Example 116, 4-Chloro-N-(2-fluoro-4-methoxy-benzyl)-N-(5-isopropyl-2-oxo-azepan-3-yl)-benzenesulfonamide] |
| 6.85 |  | Cc1nnc(-c2ccc(CN(C3CC(C(C)C)CCNC3=O)S(=O)(=O)c3ccc(Cl)cc3)cc2)o1 (stereo not drawn) [Example 180, 4-Chloro-N-(5-isopropyl-2-oxo-azepan-3-yl)-N-[4-(5-methyl-[1,3,4]oxadiazol-2-yl)-benzyl]-benzenesulfonamide] |
| 6.57 |  | Cc1noc(-c2ccc(CN(C3CC(C(C)C)CCNC3=O)S(=O)(=O)c3ccc(Cl)cc3)cc2)n1 (stereo not drawn) [Example 181, 4-Chloro-N-(5-isopropyl-2-oxo-azepan-3-yl)-N-[4-(3-methyl-[1,2,4]oxadiazol-5-yl)-benzyl]-benzenesulfonamide] |
| 8.00 |  | COC(=O)c1ccc(CN([C@@H]2CC(C)(C)CCNC2=O)S(=O)(=O)c2ccc(Cl)cc2)c(F)c1 [Example 185, 4-{[(4-Chloro-benzenesulfonyl)-((R)-5,5-dimethyl-2-oxo-azepan-3-yl)-amino]-methyl}-3-fluoro-benzoic acid methyl ester] |
| 7.52 |  | CC1(C)CCNC(=O)[C@H](N(Cc2ccc(C(=O)O)cc2F)S(=O)(=O)c2ccc(Cl)cc2)C1 [Example 188, 4-{[(4-Chloro-benzenesulfonyl)-((R)-5,5-dimethyl-2-oxo-azepan-3-yl)-amino]-methyl}-3-fluoro-benzoic acid] |
| 7.70 |  | CN(C)NC(=O)c1ccc(CN([C@@H]2CC(C)(C)CCNC2=O)S(=O)(=O)c2ccc(Cl)cc2)c(F)c1 [Example 189, 4-Chloro-N-[4-(N′,N′-dimethyl-hydrazinocarbonyl)-2-fluoro-benzyl]-N-((R)-5,5-dimethyl-2-oxo-azepan-3-yl)-benzenesulfonamide] |
